# Test results as given in patent US11957693B2, “Combination MCL-1 inhibitors with anti-cancer agents” (Gilead Sciences, Inc., priority 2021, dated 2024).
# “Also recorded” adds a separate entry of the source.
# Columns and labels:
# Type in all cases: cell-based
# [1] = test system: panel of breast cancer cell lines; experiment: 72-hour in vitro proliferation combination assay, compound A with targeted agents and chemotherapies (Example 3, Table 21)
# [2] = test system: HCC1806; experiment: Cell viability combination assay (Cell Titer Glo, Bliss synergy matrix), paclitaxel 4 h pretreatment then compound A; details: for Synergy Results (95% CI): Paclitaxel 0.000 μM
# Procedure: (§1) Cells were passaged according to ATCC guidelines with 0.25% Trypsin/EDTA (1× GIBCO-25200).
# (§2) Viability assessments were performed using Cell Titer Glo™ (Promega #G9241) according to manufactures microwell plate protocol and read for luminescence on Synergy Neo2 plate reader.
# (§3) For synergy matrix assays, TNBC cell lines were seeded 10,000 cells per well in clear-bottomed white 96-well plates (Corning #3909) in 100 μL of recommended cell culture medium. Plates were incubated at 37° C. and 100% RH for 20 hours prior to compound exposure.
# (§4) Cells were then exposed to compound A with the same checkerboard matrix using D300 dispenser and incubated for 48 hours prior to measurement of viability by Cell Titer Glo.
# (§5) Calculated values were compared to experimental results generated in the sixty-three-concentration checkerboard. Synergy or antagonism scores were generated depending on whether the observed growth inhibition was greater than or less than the calculated values, respectively.
# (§6) These differences were summed up across the whole checker-board (sixty-three wells) to give cumulative synergy and antagonism scores with units of μM^2% to reflect the 2D surface of the dose responses.
# (§7) Data for combination assays is presented in three formats.
# [3] = test system: HCC1187 (TNBC); experiment: Cell viability combination assay (Cell Titer Glo, Bliss synergy matrix), compound A + SN-38; details: HCC1187 1st Replicate (n = 5); SN-38 0.0000 μM; Compound A μM = c0 of row; 72 h
# From the text: as §1, §5, §7
# [4] = test system: MCL1; experiment: Total MCL1 MSD assay in TNBC cell lines after paclitaxel; details: HCC70, MDA-MB-468, HCC1806; paclitaxel 1 μM for 4 hours, overnight incubation
# Procedure: (§8) Cell lysates for MSD assays were generated using 1× Lysis Buffer (10× cell signaling CST-9803) 100× Protease Inhibitor, Phosphatase Inhibitor I, Phosphatase Inhibitor II (Meso Scale Discovery Inhibitor Pack R70AA-1, and PMSF (SIGMA cat #7626)
# (§9) MCL-BAK and MCL1-BIM dimer assays and total MCL1 assay were developed by MSD Custom Assay Services and run using the MSD U-PLEX Development Pack (K15227N) and protocols' revision “2018 March rev 2”. GAPDH was determined by MSD using standard assay K151PWD. All plates were read on MSD SECTOR Imager 2400 using MSD Read Buffer T (R92TC).
# (§10) For MSD assays, TNBC cell lines were seeded 25,000 cells per well in clear-bottomed white 96-well plates (Corning #3909) in recommended cell culture medium. Plates were incubated at 37° C. and 100% RH for 20 hours prior to compound exposure. […] After an additional 20 hours, samples were harvested by aspirating away supernatant and 125 μl of 1× lysis buffer was added to each well. Plates were set on ice briefly and transferred to a rocking platform at 4° C. for 20 minutes. Plates were placed on dry ice, snap frozen for 10 minutes then stored at −80° C. until tested.
# (§11) MCL1 and MCL1-BAK and MCL1-BIM dimer assays were run using materials and protocols provided by MSD Custom Assay Services based on their U-Plex technology. […] 150 μl of 2× read buffer was added to each well and plates were read on an MSD SECTOR Imager 2400. […]
# [5] = test system: MDA-MB-468; experiment: Cell viability combination assay (Cell Titer Glo, Bliss synergy matrix), paclitaxel 4 h pretreatment then compound A; details: Homo sapiens, MDA-MB-468, 4 h; read-out: Percent Inhibition
# Procedure: as §1, §2, §3, §4, §5, §6, §7
# [6] = test system: HCC70; experiment: as above; details: Homo sapiens, HCC70, 4 h; read-out: Percent Inhibition
# Procedure: as §1, §2, §3, §4, §5, §6, §7
# [7] = test system: MCL1-BIM Dimer; experiment: MCL1-BIM dimer MSD assay in TNBC cell lines after paclitaxel; details: HCC70, MDA-MB-468, HCC1806; paclitaxel 1 μM for 4 hours, overnight incubation
# Procedure: as §8, §9, §10, §11
# [8] = test system: FBXW7; experiment: FBXW7 expression by Protein Simple (Simple Western) in TNBC cell lines after paclitaxel; details: HCC70, MDA-MB-468, HCC1806; paclitaxel 1 μM for 4 hours, overnight incubation
# From the text: Simple Western immunoassays take place in a capillary. Samples and reagents are loaded into an assay plate and placed in a Protein Simple Instrument. Cell lysates are loaded into the capillary automatically and separated by size as they migrate through a stacking and separation matrix. The separated proteins are then immobilized to the capillary wall via a proprietary, photoactivated capture chemistry. Target proteins are identified using a primary antibody and immunoprobed using an HRP-conjugated secondary antibody and chemiluminescent substrate. The resulting chemiluminescent signal is detected and quantitated.
# Lysates were prepared, diluted to 0.5 ug/ml in 1× lysis buffer. Simple Western platform is run on a 384-well plate.
# Markers, internal ladders and DTT are provided by Simple Western in lyophilized forms. Reagents are resuspended as protocol describes. 20 uL of water is added to the markers. 40 ul of water is added to DTT, 20 ul of 10× sample buffer and 20 ul of DTT is mixed and called Z buffer. Markers are loaded in 1 A. 5 ul of lysate was added to 1.7 ml Eppendorf tube. 1.2 ul of Z reagent was added to each sample. The samples were heated at 100 C for 5 minutes, allowed to cool than spun in a microfuge for 30 seconds. Samples are loaded in wells A2-12. […] The resulting chemiluminescent signal is detected and quantitated.
# [9] = test system: MCL1-BAK Dimer; experiment: MCL1-BAK dimer MSD assay in TNBC cell lines after paclitaxel; details: HCC70, MDA-MB-468, HCC1806; paclitaxel 1 μM for 4 hours, overnight incubation
# Procedure: as §8, §9, §10, §11
# [10] = AU565 cell line, compound A × listed agent, 72-hour in vitro proliferation assay
# [11] = BT-20 cell line, compound A × listed agent, 72-hour in vitro proliferation assay
# [12] = DU-4475 cell line, compound A × listed agent, 72-hour in vitro proliferation assay
# [13] = BT-549 cell line, compound A × listed agent, 72-hour in vitro proliferation assay
# [14] = BT-474 cell line, compound A × listed agent, 72-hour in vitro proliferation assay
# [15] = KPL-1 cell line, Compound A × named agent, 72-hour proliferation
# [16] = MCF7, combination with compound A, 72-hour proliferation
# [17] = MDA-MB-175-VII, combination with compound A, 72-hour proliferation
# [18] = MDA-MB-231, combination with compound A, 72-hour proliferation
# [19] = MDA-MB-361, combination with compound A, 72-hour proliferation
# [20] = MDA-MB-436, combination with compound A, 72-hour proliferation
# [21] = MDA-MB-453, combination with compound A, 72-hour proliferation
# [22] = MDA-MB-468, combination with compound A, 72-hour proliferation
# [23] = SK-BR-3 cell line, combination Compound A × listed agent, 72-hour proliferation
# [24] = SUM159PT cell line, combination Compound A × listed agent, 72-hour proliferation
# [25] = T47D cell line, combination Compound A × listed agent, 72-hour proliferation
# [26] = ZR-75-1 cell line, combination Compound A × listed agent, 72-hour proliferation
# [27] = ZR-75-30 cell line, combination Compound A × listed agent, 72-hour proliferation
# [28] = Homo sapiens, read-out: Percent Inhibition
smiles,measurement,setting,value
N.N.O=C([O-])C1(C(=O)[O-])CCC1.[Pt+2] [Carboplatin],Best CI Level,[1]; [10],40
same,Best CI Level,[1]; [11],170
same,Best CI Level,"[1]; CAL-51 cell line, compound A × listed agent, 72-hour in vitro proliferation assay",165
same,Best CI Level,"[1]; CAL-85-1 cell line, compound A × listed agent, 72-hour in vitro proliferation assay",110
same,Best CI Level,"[1]; CAMA-1 cell line, compound A × listed agent, 72-hour in vitro proliferation assay",180
same,Best CI Level,[1]; [12],180
same,Best CI Level,"[1]; EVSA-T cell line, compound A × listed agent, 72-hour in vitro proliferation assay",180
N.N.[Cl][Pt][Cl] [Cisplatin],Best CI Level,[1]; [10],35
same,Best CI Level,[1]; [11],65
same,Best CI Level,[1]; [13],160
same,Best CI Level,"[1]; CAL-120 cell line, compound A × listed agent, 72-hour in vitro proliferation assay",35
same,Best CI Level,"[1]; CAL-148 cell line, compound A × listed agent, 72-hour in vitro proliferation assay",140
same,Best CI Level,[1]; [12],40
same,Best CI Level,"[1]; HCC1143 cell line, compound A × listed agent, 72-hour in vitro proliferation assay",55
CC(=O)O[C@@]12CO[C@@H]1C[C@H](O)[C@@]1(C)C(=O)[C@H](O)C3=C(C)[C@@H](OC(=O)[C@H](O)[C@@H](NC(=O)OC(C)(C)C)c4ccccc4)C[C@@](O)([C@@H](OC(=O)c4ccccc4)[C@H]21)C3(C)C [Docetaxel],Best CI Level,[1]; 72 h,170
CCOc1cc2ncc(C#N)c(Nc3ccc(OCc4ccccn4)c(Cl)c3)c2cc1NC(=O)/C=C/CN(C)C [Neratinib],Bliss Volume,[1]; [14],28.98
same,HSA volume,[1]; [14],20.36
same,Loewe Volume,[1]; [14],18.83
same,Synergy Score,[1]; [14],39.01
same,Best CI,[1]; [13],0.31
same,Bliss Volume,[1]; [13],17.92
same,HSA volume,[1]; [13],13.17
same,Loewe Volume,[1]; [13],13.98
same,Synergy Score,[1]; [13],25.15
same,Best CI,[1]; [15],0.55
same,Bliss Volume,[1]; [15],9.37
same,HSA volume,[1]; [15],2.11
same,Loewe Volume,[1]; [15],2.47
same,Synergy Score,[1]; [15],9.97
same,Best CI,[1]; [16],0.44
same,Bliss Volume,[1]; [16],20.28
same,HSA volume,[1]; [16],8.47
same,Loewe Volume,[1]; [16],8.60
same,Best CI,[1]; [17],0.64
same,Bliss Volume,[1]; [17],18.28
same,HSA volume,[1]; [17],8.80
same,Loewe Volume,[1]; [17],7.95
same,Synergy Score,[1]; [17],11.07
same,Bliss Volume,[1]; [18],6.82
same,HSA volume,[1]; [18],2.87
same,Loewe Volume,[1]; [18],5.05
same,Synergy Score,[1]; [18],4.59
same,Bliss Volume,[1]; [19],8.05
same,HSA volume,[1]; [19],9.22
same,Loewe Volume,[1]; [19],8.69
same,Synergy Score,[1]; [19],10.96
same,Best CI,[1]; [20],0.26
same,Bliss Volume,[1]; [20],5.24
same,HSA volume,[1]; [20],−0.69
same,Loewe Volume,[1]; [20],0.79
same,Synergy Score,[1]; [20],4.11
same,Best CI,[1]; [21],0.35
same,HSA volume,[1]; [21],10.24
same,Loewe Volume,[1]; [21],8.51
same,Synergy Score,[1]; [21],16.63
same,Bliss Volume,[1]; [22],34.71
same,Loewe Volume,[1]; [22],9.11
same,Synergy Score,[1]; [22],19.05
same,Best CI,[1]; [23],0.12
same,Bliss Volume,[1]; [23],28.46
same,HSA volume,[1]; [23],11.39
same,Synergy Score,[1]; [23],22.77
same,Best CI,[1]; [24],0.17
same,Bliss Volume,[1]; [24],15.93
same,HSA volume,[1]; [24],11.51
same,Loewe Volume,[1]; [24],12.90
same,Synergy Score,[1]; [24],22.98
same,Bliss Volume,[1]; [25],7.67
same,HSA volume,[1]; [25],2.55
same,Loewe Volume,[1]; [25],5.95
same,Synergy Score,[1]; [25],11.73
same,Best CI,[1]; [26],0.86
same,Bliss Volume,[1]; [26],13.55
same,HSA volume,[1]; [26],6.49
same,Loewe Volume,[1]; [26],7.51
same,Synergy Score,[1]; [26],10.39
same,Best CI,[1]; [27],0.41
same,Bliss Volume,[1]; [27],32.84
same,HSA volume,[1]; [27],16.20
same,Loewe Volume,[1]; [27],14.61
same,Synergy Score,[1]; [27],30.49
COc1nn(C)cc1C(=O)N[S@@]1(=O)=NC(=O)c2ccc3c(c2)N(C[C@@H]2CC[C@H]2[C@@H](OC)CCC[C@H](C)C1)C[C@@]1(CCCc2cc(Cl)ccc21)CO3 [Compound A],Synergy Results (95% CI),[2]; Compound A 0.004 μM,0.0
same,Synergy Results (95% CI),[2]; Compound A 1.000 μM,0.0
same,Synergy Results (95% CI),[2]; Compound A 3.000 μM,0.0
same,Synergy Results (95% CI),[2]; Compound A […],0.0
same,inhibition at 0.004 µM,[2]; [28],0.7%
same,inhibition at 1 µM,[2]; [28],8.6%
same,inhibition at 3 µM,[2]; [28],17.9%
same,Percent Inhibition,[3],99.2%
CC(=O)O[C@H]1C(=O)[C@@]2(C)[C@H]([C@H](OC(=O)c3ccccc3)[C@]3(O)C[C@H](OC(=O)[C@H](O)[C@@H](NC(=O)c4ccccc4)c4ccccc4)C(C)=C1C3(C)C)[C@]1(OC(C)=O)CO[C@@H]1C[C@@H]2O [Paclitaxel],MCL1 protein levels vs vehicle control (in words),[4],Decreases; also recorded: reduced
same,inhibition at 0.0005 µM,[5],1.1%
same,inhibition at 1 µM,[5],65.1%
same,inhibition at 3 µM,[5],70.5%
same,inhibition at 0.0005 µM,[6],-2.3%
same,inhibition at 1 µM,[6],53.3%
same,inhibition at 3 µM,[6],61.4%
same,protein levels of MCL1-BIM dimers vs vehicle control (in words),[7],Decreases; also recorded: reduced
same,FBXW7 protein levels vs vehicle control (in words),[8],Increases; also recorded: elevated
same,protein levels of MCL1-BAK dimers vs vehicle control (in words),[9],Decreases; also recorded: reduced
